Measurements from the supplement of paper PMC5908809.

Legend:
[1] = system: normal NK cells expanded with K562-aAPC; test: percent inhibition of viability; higher = more inhibition; settings: 72 h, IL-2 2.5 ng/mL
Protocol: (§1)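 Drug sensitivity and resistance testing on K562-aAPC-expanded normal NK cells: 5 concentrations (10-fold steps over a 10,000-fold range), 72 h at 37 °C, viability by CellTiter-Glo normalised to DMSO and benzethonium chloride controls; DSS from the fitted curve.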

DERL-7 (IL-2 2.5 ng/mL) [2] = test: as above; settings: 72 h
IMC-1 (IL-2 20 ng/mL) [3] = test: as above; settings: 72 h
KAI3 (IL-2 2.5 ng/mL) [4] = test: as above; settings: 72 h
KHYG-1 (IL-2 2.5 ng/mL) [5] = test: as above; settings: 72 h
NK-92 (IL-2 2.5 ng/mL) [6] = test: as above; settings: 72 h
NK-YS (IL-2 2.5 ng/mL) [7] = test: as above; settings: 72 h
NKL (IL-2 2.5 ng/mL) [8] = test: as above; settings: 72 h
SNK-6 (IL-2 2.5 ng/mL) [9] = test: as above; settings: 72 h
YT (IL-2 2.5 ng/mL) [10] = test: as above; settings: 72 h
[11] = system: normal primary NK cells, pool 1 (3 donors) (IL-2 2.5 ng/mL); test: as above; settings: 72 h
[12] = system: normal primary NK cells, pool 1 (3 donors), resting (IL-2 0 ng/mL); test: as above; settings: 72 h
[13] = system: normal primary NK cells, pool 2 (3 donors) (IL-2 2.5 ng/mL); test: as above; settings: 72 h
[14] = system: normal primary NK cells, pool 3 (3 donors) (IL-2 2.5 ng/mL); test: as above; settings: 72 h
[15] = system: normal NK cells expanded with K562-aAPC; test: drug sensitivity score (DSS) (DSS units); higher = more sensitive; extreme values may be limits of the assay; settings: 72 h; IL-2 2.5 ng/mL
Protocol: as §1

DERL-7 (IL-2 2.5 ng/mL) [16] = test: as above; settings: 72 h
IMC-1 (IL-2 20 ng/mL) [17] = test: as above; settings: 72 h
KAI3 (IL-2 2.5 ng/mL) [18] = test: as above; settings: 72 h
KHYG-1 (IL-2 2.5 ng/mL) [19] = test: as above; settings: 72 h
NK-92 (IL-2 2.5 ng/mL) [20] = test: as above; settings: 72 h
NK-YS (IL-2 2.5 ng/mL) [21] = test: as above; settings: 72 h
NKL (IL-2 2.5 ng/mL) [22] = test: as above; settings: 72 h
SNK-6 (IL-2 2.5 ng/mL) [23] = test: as above; settings: 72 h
YT (IL-2 2.5 ng/mL) [24] = test: as above; settings: 72 h
[25] = system: normal primary NK cells, pool 1 (3 donors) (IL-2 2.5 ng/mL); test: as above; settings: 72 h
[26] = system: normal primary NK cells, pool 1 (3 donors), resting (IL-2 0 ng/mL); test: as above; settings: 72 h
[27] = system: normal primary NK cells, pool 2 (3 donors) (IL-2 2.5 ng/mL); test: as above; settings: 72 h
[28] = system: normal primary NK cells, pool 3 (3 donors) (IL-2 2.5 ng/mL); test: as above; settings: 72 h

O=c1sn(-c2cccc3ccccc23)c(=O)n1Cc1ccccc1 [Tideglusib] (max concentration tested 3000 nM)
percent inhibition of viability [%]
Settings	0.3 nM	3 nM	30 nM	300 nM	3000 nM
DERL-7 (IL-2 2.5 ng/mL) [2]	0.33	8.56	5.78	9.73	-4.19
IMC-1 (IL-2 20 ng/mL) [3]	-9.15	-4.57	-3.56	-1.74	14.2
KAI3 (IL-2 2.5 ng/mL) [4]	4.52	0.51	-8.06	2.48	28.9
KHYG-1 (IL-2 2.5 ng/mL) [5]	0.24	-8.35	-8.09	-2.62	8.61
NK-92 (IL-2 2.5 ng/mL) [6]	-5	-12.7	-13.7	-11.8	-1.4
NK-YS (IL-2 2.5 ng/mL) [7]	-1.28	-6.26	-8.67	-1.58	10.1
NKL (IL-2 2.5 ng/mL) [8]	-0.96	-13.4	-11.3	4.69	13.7
SNK-6 (IL-2 2.5 ng/mL) [9]	-1.78	4.09	-8.27	7.39	0.93
YT (IL-2 2.5 ng/mL) [10]	0.91	-5.07	-4.89	-0.66	12.1
[1]	-6.95	-7.17	-3.75	-3.95	10.8
[11]	-1.89	-5.16	15.6	9.54	6.41
[12]	2.26	8.84	16.1	20.2	27.7
[13]	-9.87	-9.74	-4.05	-1.59	6.8
[14]	-6.37	-9.25	6.54	6.09	5.7

Settings	drug sensitivity score
DERL-7 (IL-2 2.5 ng/mL) [16]	0
IMC-1 (IL-2 20 ng/mL) [17]	0.12
KAI3 (IL-2 2.5 ng/mL) [18]	1.59
KHYG-1 (IL-2 2.5 ng/mL) [19]	0
NK-92 (IL-2 2.5 ng/mL) [20]	0
NK-YS (IL-2 2.5 ng/mL) [21]	0
NKL (IL-2 2.5 ng/mL) [22]	0.46
SNK-6 (IL-2 2.5 ng/mL) [23]	0
YT (IL-2 2.5 ng/mL) [24]	0.04
[15]	0
[25]	0.12
[26]	4.87
[27]	0
[28]	0

CC(C)(C)c1nc(-c2cccc(NS(=O)(=O)c3c(F)cccc3F)c2F)c(-c2ccnc(N)n2)s1 [Dabrafenib] (max concentration tested 2500 nM)
percent inhibition of viability [%]
Settings	0.25 nM	2.5 nM	25 nM	250 nM	2500 nM
DERL-7 (IL-2 2.5 ng/mL) [2]	3.06	5	-0.47	-3.32	34.5
IMC-1 (IL-2 20 ng/mL) [3]	-5.61	-2.47	-3.07	-7.52	8.46
KAI3 (IL-2 2.5 ng/mL) [4]	-6.1	1.01	2.43	-4.3	31.2
KHYG-1 (IL-2 2.5 ng/mL) [5]	-2.85	-0.1	2.78	71.5	30.8
NK-92 (IL-2 2.5 ng/mL) [6]	-8.16	-11.7	-14.1	-7.91	-1.09
NK-YS (IL-2 2.5 ng/mL) [7]	-4.15	-0.92	0.04	-2.02	0.94
NKL (IL-2 2.5 ng/mL) [8]	-14.1	-19.1	-20.9	-29.2	-29.9
SNK-6 (IL-2 2.5 ng/mL) [9]	-5.34	1.84	-12.1	0.17	0
YT (IL-2 2.5 ng/mL) [10]	-0.07	-0.32	0.19	3.06	16.2
[1]	-3.8	-9.82	-8.95	-1.61	6.4
[11]	-7.46	-6.18	-4.85	-3.22	3.89
[12]	-10.3	-11.7	7.48	10	45
[13]	-9.64	-5.28	-9.79	-4.67	-5.57
[14]	-9.2	-8.52	-4.83	-5.01	-0.02

Settings	drug sensitivity score
DERL-7 (IL-2 2.5 ng/mL) [16]	1.38
IMC-1 (IL-2 20 ng/mL) [17]	0
KAI3 (IL-2 2.5 ng/mL) [18]	1.13
KHYG-1 (IL-2 2.5 ng/mL) [19]	13.4
NK-92 (IL-2 2.5 ng/mL) [20]	0.89
NK-YS (IL-2 2.5 ng/mL) [21]	0
NKL (IL-2 2.5 ng/mL) [22]	0.89
SNK-6 (IL-2 2.5 ng/mL) [23]	0
YT (IL-2 2.5 ng/mL) [24]	0.64
[15]	0
[25]	0
[26]	3.85
[27]	0.89
[28]	0.89

Cc1cc(Nc2nc(N[C@@H](C)c3ncc(F)cn3)ncc2Cl)[nH]n1 [AZD1480] (max concentration tested 1000 nM)
percent inhibition of viability [%]
Settings	0.1 nM	1 nM	10 nM	100 nM	1000 nM
DERL-7 (IL-2 2.5 ng/mL) [2]	0.17	6.33	14.9	62	94.2
IMC-1 (IL-2 20 ng/mL) [3]	-4.11	-5.28	-12.7	-1.83	73.8
KAI3 (IL-2 2.5 ng/mL) [4]	3.55	2.45	24.7	77	87.5
KHYG-1 (IL-2 2.5 ng/mL) [5]	0.27	3.46	15.9	86.6	95.6
NK-92 (IL-2 2.5 ng/mL) [6]	-8.05	3.14	1.52	28.2	78
NK-YS (IL-2 2.5 ng/mL) [7]	0.27	-0.67	8.06	35.8	65.3
NKL (IL-2 2.5 ng/mL) [8]	-13.4	-3.23	19.8	65.5	76.2
SNK-6 (IL-2 2.5 ng/mL) [9]	-1.78	7.1	4.31	59.5	96.2
YT (IL-2 2.5 ng/mL) [10]	2.34	-1.75	1.84	10.8	70.7
[1]	-0.54	2.03	10.3	53.7	95.5
[11]	-6.31	-10.2	7.91	39.2	68.6
[12]	-5.75	-9.19	6.02	2	2.57
[13]	-8.71	-7.23	-6.75	36.8	58
[14]	-15.9	-5.65	-9.13	21.8	58.1

Settings	drug sensitivity score
DERL-7 (IL-2 2.5 ng/mL) [16]	13.7
IMC-1 (IL-2 20 ng/mL) [17]	3.91
KAI3 (IL-2 2.5 ng/mL) [18]	17.1
KHYG-1 (IL-2 2.5 ng/mL) [19]	17.9
NK-92 (IL-2 2.5 ng/mL) [20]	8.24
NK-YS (IL-2 2.5 ng/mL) [21]	7.94
NKL (IL-2 2.5 ng/mL) [22]	14.5
SNK-6 (IL-2 2.5 ng/mL) [23]	12.5
YT (IL-2 2.5 ng/mL) [24]	5.7
[15]	12
[25]	8.59
[26]	0
[27]	7.54
[28]	6.17
